According to patent publication US12667104B2, “Herbicidal compositions” (Yissum Research Development Company of the Hebrew …, priority 2019, dated 2026):

Tested on: weeds
Assay: Weed control: small scale field experiment (1 m×1 m plots)
Type: in vivo
Conditions: for herbicidal effect category, 30 days: 30 days after the treatment; for herbicidal effect category, 30 days / herbicidal effect category, 12 days: 1 m×1 m plots, sprayed at 100 liter per hectare, concentration C (% by weight) per composition; for herbicidal effect category, 12 days: 12 days after the treatment; for herbicidal effect (in words): small scale field plots, summary of Table 1
Protocol: The active components(s), the concentration of the dissolved/suspended active components in the aqueous composition (C, expressed as % by weight of the composition) and the mixing ratios in case of multiple components are tabulated in Table 1.
Compositions 1-A to 1-L, 2-O, 2-P and 3-Q to 3-V were prepared by dissolving water-soluble powders or pellets in water, or adding to water sparingly soluble powders, or combination of both, at the concentrations set out in Table 1, to form sprayable solutions/suspensions.
The herbicidal compositions were sprayed at rate of application of 100 liter per hectare.
The herbicidal effect was determined 5, 12 and 30 days after the treatment. To this end, five categories were defined: • A category: complete control of the weeds was achieved. • B category: severe damage was caused to the weeds. • C category: some damage was caused to the weeds. • D category: minor damage was caused to the weeds. • E category: no damage was caused to the weeds.

SMILES	herbicidal effect category, 30 days	herbicidal effect category, 12 days	herbicidal effect (in words)
[Na+].[OH-] [Composition 1-A, NaOH]	B+		
O=C([O-])O.[K+] [Composition 1-F, KHCO3]	C+		
[K+].[OH-] [Composition 1-D, KOH]	B+		
O=C([O-])O.O=C([O-])O.[Ca+2] [Composition 1-I, Ca(HCO3)2]		D+	poor activity
O=C([O-])O.[Na+] [Composition 1-C, NaHCO3]		D+	
[Ca+2].[OH-].[OH-] [Composition 1-G, Ca(OH)2]	D+		poor activity
